Test results reported in the NIST ThermoML archive (doi:10.1016/j.jct.2018.02.018).

Tests used:
[1] = xn = mol fraction of the nth substance listed; conditions: 100 kPa, Liquid; for speed of sound: Frequency=3 MHz, Single path-length method; for mass density: Vibrating tube method
[2] = refractive index (Na D-line) (dimensionless); xn = mol fraction of the nth substance listed; conditions: 100 kPa, Liquid, Standard Abbe refractometry

NCCO [2-aminoethan-1-ol] + C[S+](C)[O-]
Conditions | mass density, [1] [kg/m3] | refractive index, [2] | speed of sound, [1] [m/s]
293.15 K, x2 = 0 | 1016 | 1.455 | 1734.2
293.15 K, x2 = 0.1026 | 1026 | 1.457 | 1701.8
293.15 K, x2 = 0.2008 | 1035 | 1.46 | 1672.3
293.15 K, x2 = 0.2981 | 1043 | 1.462 | 1645.9
293.15 K, x2 = 0.3966 | 1051 | 1.465 | 1619.8
293.15 K, x2 = 0.4933 | 1059 | 1.467 | 1595.4
293.15 K, x2 = 0.6021 | 1068 | 1.469 | 1571.2
293.15 K, x2 = 0.6969 | 1076 | 1.472 | 1550.6
293.15 K, x2 = 0.7998 | 1083 | 1.474 | 1533.3
293.15 K, x2 = 0.9005 | 1092 | 1.476 | 1517.8
303.15 K, x2 = 0 | 1008 | 1.451 | 1702.2
303.15 K, x2 = 0.1026 | 1017 | 1.454 | 1669.2
303.15 K, x2 = 0.2008 | 1026 | 1.455 | 1639.1
303.15 K, x2 = 0.2981 | 1034 | 1.458 | 1611.9
303.15 K, x2 = 0.3966 | 1042 | 1.46 | 1585.5
303.15 K, x2 = 0.4933 | 1050 | 1.463 | 1561.2
303.15 K, x2 = 0.6021 | 1058 | 1.465 | 1537
303.15 K, x2 = 0.6969 | 1066 | 1.467 | 1516.6
303.15 K, x2 = 0.7998 | 1074 | 1.469 | 1499
303.15 K, x2 = 0.9005 | 1082 | 1.472 | 1484
313.15 K, x2 = 0 | 1000 | 1.447 | 1669.4
313.15 K, x2 = 0.1026 | 1009 | 1.45 | 1636.3
313.15 K, x2 = 0.2008 | 1017 | 1.452 | 1605.3
313.15 K, x2 = 0.2981 | 1025 | 1.454 | 1578.3
313.15 K, x2 = 0.3966 | 1033 | 1.456 | 1551.7
313.15 K, x2 = 0.4933 | 1041 | 1.458 | 1527.2
313.15 K, x2 = 0.6021 | 1049 | 1.461 | 1503
313.15 K, x2 = 0.6969 | 1057 | 1.463 | 1483.1
313.15 K, x2 = 0.7998 | 1064 | 1.465 | 1465.2
313.15 K, x2 = 0.9005 | 1072 | 1.468 | 1449.9
323.15 K, x2 = 0 | 992 | 1.443 | 1637.3
323.15 K, x2 = 0.1026 | 1001 | 1.446 | 1603.2
323.15 K, x2 = 0.2008 | 1009 | 1.449 | 1571.9
323.15 K, x2 = 0.2981 | 1017 | 1.45 | 1544.7
323.15 K, x2 = 0.3966 | 1024 | 1.452 | 1517.9
323.15 K, x2 = 0.4933 | 1031 | 1.454 | 1493.4
323.15 K, x2 = 0.6021 | 1039 | 1.457 | 1469.3
323.15 K, x2 = 0.6969 | 1047 | 1.459 | 1449.4
323.15 K, x2 = 0.7998 | 1054 | 1.461 | 1431.7
323.15 K, x2 = 0.9005 | 1062 | 1.463 | 1416.4
